Measurements published in ChEMBL document CHEMBL1201862, “PubChem BioAssay data set” (2004).
The source made the active and inactive calls.

Key:
Large T antigen = Large T antigen (Simian virus 40, UniProt P03070); format: functional, Betapolyomavirus macacae;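 also: Confirmatory-stage PubChem screen for compounds that inhibit SV40 T antigen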
[1] = target: T1, DNA dC->dU-editing enzyme APOBEC-3A (Homo sapiens, UniProt P31941); assay: A3A deaminase inhibition for selectivity – biochemical, dose response (AID 504722); format: functional
T1 sequence (P31941 whole entry): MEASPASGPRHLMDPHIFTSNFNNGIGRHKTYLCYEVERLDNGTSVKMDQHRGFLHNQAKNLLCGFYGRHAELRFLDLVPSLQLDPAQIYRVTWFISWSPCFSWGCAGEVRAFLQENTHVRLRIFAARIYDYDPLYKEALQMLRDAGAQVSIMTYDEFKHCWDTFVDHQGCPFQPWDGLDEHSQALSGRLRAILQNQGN

[2] = target: T2, DNA dC->dU-editing enzyme APOBEC-3G (Homo sapiens, UniProt Q9HC16); assay: Dose Response confirmation of small molecule APOBEC3G DNA Deaminase Inhibitors via a fluorescence-based single-stranded DNA deaminase assay. [Related pubchem assays (depositor defined):AID493012, AID493028]; format: functional
T2 sequence (Q9HC16 whole entry): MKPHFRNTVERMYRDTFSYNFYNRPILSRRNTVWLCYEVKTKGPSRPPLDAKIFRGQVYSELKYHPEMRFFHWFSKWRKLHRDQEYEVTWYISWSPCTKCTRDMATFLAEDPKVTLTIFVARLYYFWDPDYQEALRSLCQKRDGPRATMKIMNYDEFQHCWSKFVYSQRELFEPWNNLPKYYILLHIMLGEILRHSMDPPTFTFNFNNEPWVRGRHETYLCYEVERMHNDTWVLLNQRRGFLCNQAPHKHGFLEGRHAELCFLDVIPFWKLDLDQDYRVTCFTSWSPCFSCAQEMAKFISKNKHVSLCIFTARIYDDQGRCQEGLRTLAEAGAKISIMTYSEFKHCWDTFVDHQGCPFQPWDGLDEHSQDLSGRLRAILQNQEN

[3] = target: T1, DNA dC->dU-editing enzyme APOBEC-3A; assay: SAR analysis of small molecule inhibitors of APOBEC3A DNA Deaminase via a fluorescence-based single-stranded DNA deaminase assay - Set 2.; format: functional; details: read-out: IC50_Mean
[4] = target: T2, DNA dC->dU-editing enzyme APOBEC-3G; assay: SAR analysis of small molecule inhibitors of APOBEC3G DNA Deaminase via a fluorescence-based single-stranded DNA deaminase assay - Set 2.; format: functional; details: read-out: IC50_Mean
[5] = target: T2, DNA dC->dU-editing enzyme APOBEC-3G; assay: inhibition of APOBEC3G ssDNA deamination – biochemical, fluorescence, single-stranded DNA substrate, SAR follow-up (AID 602136); format: functional; details: read-out: IC50_Mean
[6] = target: T1, DNA dC->dU-editing enzyme APOBEC-3A; assay: SAR analysis of small molecule inhibitors of APOBEC3A DNA Deaminase via a fluorescence-based single-stranded DNA deaminase assay.; format: functional; details: read-out: IC50_Mean
[7] = target: Alkaline phosphatase, placental type (Homo sapiens, UniProt P05187); assay: human placental alkaline phosphatase inhibition – biochemical, luminescence, confirmation (AID 1512); format: functional
Alkaline phosphatase, placental type, sequence (P05187 whole entry): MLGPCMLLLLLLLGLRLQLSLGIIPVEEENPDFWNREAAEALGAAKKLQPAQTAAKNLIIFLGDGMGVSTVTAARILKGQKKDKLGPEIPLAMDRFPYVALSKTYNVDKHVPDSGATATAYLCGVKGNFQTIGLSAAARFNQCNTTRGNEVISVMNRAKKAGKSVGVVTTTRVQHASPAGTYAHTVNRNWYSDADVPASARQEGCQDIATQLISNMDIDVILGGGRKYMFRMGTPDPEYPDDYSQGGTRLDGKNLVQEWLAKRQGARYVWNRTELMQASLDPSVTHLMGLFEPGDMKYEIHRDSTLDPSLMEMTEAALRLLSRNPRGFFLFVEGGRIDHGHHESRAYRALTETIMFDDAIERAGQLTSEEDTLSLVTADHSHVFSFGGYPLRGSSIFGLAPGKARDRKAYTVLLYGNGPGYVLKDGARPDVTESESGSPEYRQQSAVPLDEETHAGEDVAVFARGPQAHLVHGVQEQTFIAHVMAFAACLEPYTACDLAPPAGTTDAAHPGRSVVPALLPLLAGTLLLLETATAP

[8] = target: FAD-linked sulfhydryl oxidase ALR (Homo sapiens, UniProt P55789); assay: ALR-catalysed DTT oxidation blockers – biochemical, H2O2 detection, luminescence, cherry-pick, dose response (AID 493248)
FAD-linked sulfhydryl oxidase ALR, sequence (P55789 whole entry): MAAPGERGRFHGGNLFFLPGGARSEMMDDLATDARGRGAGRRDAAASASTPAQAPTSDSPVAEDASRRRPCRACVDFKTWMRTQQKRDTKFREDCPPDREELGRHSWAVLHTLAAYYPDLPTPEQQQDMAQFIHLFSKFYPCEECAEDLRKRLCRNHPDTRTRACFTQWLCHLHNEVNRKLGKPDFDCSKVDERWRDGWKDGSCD

[9] = Luminescence Cell-Based Dose Response HTS to Identify Inhibitors of 5'UTR Stem-Loop Driven Prion Protein mRNA Translation in H4 Neuroglioblastoma Cells. [Related pubchem assays: 1827 (Project Summary), 1813 (Primary HTS)]; format: functional
[10] = alpha-synuclein stem-loop luciferase translation blockers – H4 neuroglioma cells, luminescence, confirmation (AID 1988); format: functional, cell-based
[11] = Luminescence Cell-Based Dose Retest to Confirm Inhibitors of Cancer Stem Cells. [Related pubchem assays (depositor defined):AID2717, AID2721]; format: functional; details: Homo sapiens
[12] = target: 1-acylglycerol-3-phosphate O-acyltransferase ABHD5/Perilipin-5 (Homo sapiens, UniProt Q00G26+Q8WTS1); assay: Luminescence-based biochemical high throughput dose response assay for inhibitors of the interaction of the lipase co-activator protein, abhydrolase domain containing 5 (ABHD5) with perilipin-5 (MLDP; PLIN5) (2K validation set). [Related pubchem assays (depositor defined):AID493035, AID493241]
1-acylglycerol-3-phosphate O-acyltransferase ABHD5/Perilipin-5, sequence (Q00G26 whole entry, the tested form may be a part): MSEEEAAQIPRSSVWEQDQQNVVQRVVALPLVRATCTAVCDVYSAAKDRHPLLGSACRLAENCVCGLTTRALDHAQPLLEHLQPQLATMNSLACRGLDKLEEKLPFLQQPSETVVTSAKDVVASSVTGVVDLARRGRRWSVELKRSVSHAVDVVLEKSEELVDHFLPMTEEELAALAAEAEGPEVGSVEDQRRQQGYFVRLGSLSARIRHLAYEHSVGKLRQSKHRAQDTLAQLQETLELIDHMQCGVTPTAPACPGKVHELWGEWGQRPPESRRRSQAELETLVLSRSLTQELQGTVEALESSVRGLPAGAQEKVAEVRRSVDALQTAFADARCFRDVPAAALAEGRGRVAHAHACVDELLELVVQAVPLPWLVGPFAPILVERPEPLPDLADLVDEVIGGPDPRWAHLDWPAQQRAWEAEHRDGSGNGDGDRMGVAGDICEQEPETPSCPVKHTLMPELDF
1-acylglycerol-3-phosphate O-acyltransferase ABHD5/Perilipin-5, sequence (Q8WTS1 whole entry, the tested form may be a part): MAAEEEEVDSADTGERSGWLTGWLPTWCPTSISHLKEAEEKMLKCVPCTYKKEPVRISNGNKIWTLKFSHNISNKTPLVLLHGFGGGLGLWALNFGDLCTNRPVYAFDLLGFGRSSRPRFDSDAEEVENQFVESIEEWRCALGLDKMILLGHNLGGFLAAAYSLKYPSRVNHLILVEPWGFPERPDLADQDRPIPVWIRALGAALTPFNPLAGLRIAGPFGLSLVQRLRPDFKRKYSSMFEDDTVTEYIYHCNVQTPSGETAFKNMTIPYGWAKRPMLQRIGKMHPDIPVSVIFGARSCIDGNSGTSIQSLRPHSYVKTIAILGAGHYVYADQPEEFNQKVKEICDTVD

Perilipin-1/ABHD5 = Perilipin-1/ABHD5 (Homo sapiens, UniProt O60240+Q8WTS1); assay: Luminescence-based biochemical high throughput dose response assay for inhibitors of the interaction of the lipase co-activator protein, abhydrolase domain containing 5 (ABHD5) with perilipin-1 (PLIN1) (2K validation set). [Related pubchem assays (depositor defined):AID493027, AID493057]
Perilipin-1/ABHD5, sequence (Q8WTS1 whole entry, the tested form may be a part): as above
Perilipin-1/ABHD5, sequence (O60240 whole entry, the tested form may be a part): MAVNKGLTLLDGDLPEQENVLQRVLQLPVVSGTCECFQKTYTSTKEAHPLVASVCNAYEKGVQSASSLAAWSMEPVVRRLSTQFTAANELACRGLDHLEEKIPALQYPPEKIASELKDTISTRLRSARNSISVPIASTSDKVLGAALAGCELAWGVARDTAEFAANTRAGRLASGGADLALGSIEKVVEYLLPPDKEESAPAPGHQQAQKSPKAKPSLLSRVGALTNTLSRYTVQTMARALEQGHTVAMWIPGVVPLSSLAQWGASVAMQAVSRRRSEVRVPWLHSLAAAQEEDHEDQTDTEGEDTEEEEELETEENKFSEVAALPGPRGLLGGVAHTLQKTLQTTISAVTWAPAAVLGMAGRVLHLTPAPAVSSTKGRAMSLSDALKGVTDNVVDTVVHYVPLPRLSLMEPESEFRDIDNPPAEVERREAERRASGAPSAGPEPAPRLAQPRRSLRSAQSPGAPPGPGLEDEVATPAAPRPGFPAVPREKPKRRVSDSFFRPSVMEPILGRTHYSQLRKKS

[13] = target: Neurotensin receptor type 1 (Homo sapiens, UniProt P30989); format: functional;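 also: Image-based confirmatory dose-response assay measuring agonist activity at NTR1; NTR1-expressing U2OS osteosarcoma cells imaged for beta-arrestin GFP spot formation; agonist potency where compounds increase beta-arrestin recruitment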
Neurotensin receptor type 1, sequence (P30989 whole entry): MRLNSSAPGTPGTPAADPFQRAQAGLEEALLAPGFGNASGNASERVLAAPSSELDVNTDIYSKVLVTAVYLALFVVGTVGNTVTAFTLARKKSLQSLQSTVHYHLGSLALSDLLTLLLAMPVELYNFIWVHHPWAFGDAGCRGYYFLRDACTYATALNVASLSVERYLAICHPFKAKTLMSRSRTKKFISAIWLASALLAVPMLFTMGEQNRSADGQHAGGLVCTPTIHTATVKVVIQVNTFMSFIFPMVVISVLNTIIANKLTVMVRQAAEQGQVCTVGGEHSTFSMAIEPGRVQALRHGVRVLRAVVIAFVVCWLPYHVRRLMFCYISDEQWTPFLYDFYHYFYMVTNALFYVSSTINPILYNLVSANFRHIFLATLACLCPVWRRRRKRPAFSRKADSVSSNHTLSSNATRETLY

X-box-binding protein 1 = X-box-binding protein 1 (Homo sapiens, UniProt P17861); format: functional, Cricetulus griseus;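 also: confirmatory dose-response counter-screen serving a CHOP assay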
X-box-binding protein 1, sequence (P17861 whole entry): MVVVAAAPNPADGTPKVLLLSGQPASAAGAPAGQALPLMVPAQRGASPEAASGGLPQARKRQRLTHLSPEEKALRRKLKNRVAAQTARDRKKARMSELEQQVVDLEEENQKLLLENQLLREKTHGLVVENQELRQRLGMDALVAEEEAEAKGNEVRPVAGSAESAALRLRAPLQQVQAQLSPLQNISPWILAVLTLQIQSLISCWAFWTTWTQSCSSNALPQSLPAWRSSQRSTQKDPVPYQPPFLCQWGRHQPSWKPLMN

[14] = luciferase reporter signal suppression in cells – H4 neuroglioma cells, luminescence, dose response (AID 1990); format: functional, cell-based
BJ [15] = assay: BJ-TERT fibroblast viability loss – cell-based, RAS-independent, luminescence, dose response (AID 1933); format: functional; details: Homo sapiens
BJ [16] = assay: cells; format: functional, cell-based; details: Homo sapiens
J774.A1 = assay: Confirmation of image-based Screening Assay for Inhibitors of Phagocytosis. [Related pubchem assays (depositor defined):AID1029, AID1643]; format: functional, cell-based; details: Mus musculus
BJ [17] = assay: BJ-TERT-LT-ST fibroblast viability loss – cell-based, RAS-independent, luminescence, dose response (AID 1935); format: functional; details: Homo sapiens;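 also: BJ fibroblasts immortalized with TERT plus LT and ST oncogenes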
[18] = DRD fibroblast viability loss – cell-based, non-viral oncogenic, luminescence, dose response (AID 1934); format: functional; details: Homo sapiens
[19] = target: E3 ubiquitin-protein ligase Mdm2/Protein Mdm4 (Homo sapiens, UniProt O15151+Q00987); assay: disruption of Mdm2/MdmX protein binding – luminescence detection, dose response (AID 504593); format: functional
[20] = HEK-293T viability loss after treatment – luminescence, T-cell screen hits, cytotoxicity control for TCR NF-kB inhibitor project, dose response (AID 489026); format: functional, cell-based;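 also: cells exposed to compound about 14 hours before the viability readout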
[21] = target: T3, Replicative DNA helicase DnaB (Mycobacterium tuberculosis, UniProt P9WMR3); assay: DnaB intein splicing inhibitors, dose response, biochemical, cell-free fluorescence (AID 449749); format: functional
T3 sequence (P9WMR3 whole entry): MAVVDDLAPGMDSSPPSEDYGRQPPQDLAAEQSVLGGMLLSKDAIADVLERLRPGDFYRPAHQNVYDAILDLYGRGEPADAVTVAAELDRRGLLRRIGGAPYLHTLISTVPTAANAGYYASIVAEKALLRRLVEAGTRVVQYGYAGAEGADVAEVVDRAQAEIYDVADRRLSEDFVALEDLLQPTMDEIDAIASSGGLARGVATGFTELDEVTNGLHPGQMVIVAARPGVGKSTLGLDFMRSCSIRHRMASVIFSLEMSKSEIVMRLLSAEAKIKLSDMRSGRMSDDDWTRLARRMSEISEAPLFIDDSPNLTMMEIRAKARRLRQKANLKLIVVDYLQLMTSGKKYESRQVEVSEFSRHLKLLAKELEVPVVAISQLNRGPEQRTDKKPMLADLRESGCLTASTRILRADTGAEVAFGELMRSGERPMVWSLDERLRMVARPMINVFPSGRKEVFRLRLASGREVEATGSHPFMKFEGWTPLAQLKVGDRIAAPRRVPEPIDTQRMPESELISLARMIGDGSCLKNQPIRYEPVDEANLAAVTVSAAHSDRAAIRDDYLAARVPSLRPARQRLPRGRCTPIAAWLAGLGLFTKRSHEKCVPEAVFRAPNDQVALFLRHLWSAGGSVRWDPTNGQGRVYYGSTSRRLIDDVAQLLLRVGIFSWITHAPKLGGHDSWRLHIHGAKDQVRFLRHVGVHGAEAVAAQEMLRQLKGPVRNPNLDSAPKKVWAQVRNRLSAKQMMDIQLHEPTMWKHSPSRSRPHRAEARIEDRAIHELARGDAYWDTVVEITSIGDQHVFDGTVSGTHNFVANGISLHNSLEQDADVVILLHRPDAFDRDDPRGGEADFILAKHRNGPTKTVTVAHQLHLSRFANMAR

BJ [22] = assay: growth inhibition of engineered Ras-driven BJ cells – cell-based, alamar blue fluorescence, cherrypicked samples, dose response (AID 2631); format: functional; details: Homo sapiens;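 also: confirmatory dose-response assay in RAS-dependent BJ fibroblasts engineered with TERT, LT and ST, with cytotoxicity read by fluorescence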
Protein RecA = target: T4, Protein RecA (Mycobacterium tuberculosis, UniProt P9WHJ3); assay: Fluorescence Cell-Free Homogeneous Dose Retest to Identify Inhibitors of RecA-Intein Splicing Activity. [Related pubchem assays (depositor defined):AID2097, AID2223, AID489010, AID492950]; format: functional
T4 sequence (P9WHJ3 whole entry): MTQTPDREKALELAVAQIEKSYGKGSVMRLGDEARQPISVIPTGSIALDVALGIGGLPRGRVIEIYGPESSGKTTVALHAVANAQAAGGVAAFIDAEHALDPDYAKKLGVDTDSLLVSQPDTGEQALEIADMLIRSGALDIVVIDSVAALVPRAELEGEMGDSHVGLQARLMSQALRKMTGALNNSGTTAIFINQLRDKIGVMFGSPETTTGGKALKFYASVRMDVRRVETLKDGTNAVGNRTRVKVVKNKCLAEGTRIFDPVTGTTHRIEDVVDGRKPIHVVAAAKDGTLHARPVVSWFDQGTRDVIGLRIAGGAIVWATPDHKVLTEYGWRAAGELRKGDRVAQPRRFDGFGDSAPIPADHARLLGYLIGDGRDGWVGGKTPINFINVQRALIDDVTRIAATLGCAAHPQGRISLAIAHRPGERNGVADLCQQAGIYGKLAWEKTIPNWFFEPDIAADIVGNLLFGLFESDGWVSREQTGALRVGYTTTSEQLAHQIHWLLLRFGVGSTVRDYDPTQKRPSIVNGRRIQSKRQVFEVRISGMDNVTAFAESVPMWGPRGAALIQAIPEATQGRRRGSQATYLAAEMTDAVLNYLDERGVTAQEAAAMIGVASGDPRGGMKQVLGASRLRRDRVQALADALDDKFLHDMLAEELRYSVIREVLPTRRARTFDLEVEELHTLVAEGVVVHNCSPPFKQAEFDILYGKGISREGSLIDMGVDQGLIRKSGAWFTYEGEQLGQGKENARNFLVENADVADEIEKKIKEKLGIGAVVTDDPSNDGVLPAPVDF

Large T antigen, sequence (P03070 whole entry): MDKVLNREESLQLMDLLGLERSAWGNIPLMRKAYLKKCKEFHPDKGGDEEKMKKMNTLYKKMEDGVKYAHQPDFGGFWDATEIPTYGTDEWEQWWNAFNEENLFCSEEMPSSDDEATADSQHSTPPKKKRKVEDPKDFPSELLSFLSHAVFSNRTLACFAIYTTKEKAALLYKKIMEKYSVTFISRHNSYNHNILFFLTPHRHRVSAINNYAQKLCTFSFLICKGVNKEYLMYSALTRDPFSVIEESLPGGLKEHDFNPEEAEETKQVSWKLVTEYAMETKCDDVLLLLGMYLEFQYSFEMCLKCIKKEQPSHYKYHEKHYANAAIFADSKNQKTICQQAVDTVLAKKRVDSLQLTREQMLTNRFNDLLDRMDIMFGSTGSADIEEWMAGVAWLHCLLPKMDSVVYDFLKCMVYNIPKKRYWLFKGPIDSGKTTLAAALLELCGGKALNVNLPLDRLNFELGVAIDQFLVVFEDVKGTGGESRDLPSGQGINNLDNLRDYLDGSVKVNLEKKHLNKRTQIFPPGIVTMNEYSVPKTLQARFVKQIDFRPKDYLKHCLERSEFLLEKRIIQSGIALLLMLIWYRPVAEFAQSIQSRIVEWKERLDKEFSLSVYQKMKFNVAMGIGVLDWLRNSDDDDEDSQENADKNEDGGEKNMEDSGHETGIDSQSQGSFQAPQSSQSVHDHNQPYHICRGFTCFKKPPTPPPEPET

SMILES: CCCCn1c(=O)c2ccccc2n2c(S)nnc12
- IC50 (Large T antigen): 11.5 µM (active)
- IC50 [1]: > 100 µM (inactive)
- IC50 [2]: 1.7 µM (active)
- IC50 [3]: > 99 µM (inactive)
- IC50 [4]: 0.345 µM (active)
- IC50 [5]: 2.72 µM (active)
- IC50 [6]: > 99 µM (inactive)

SMILES: O=C(NNc1ccccn1)C(=O)NNS(=O)(=O)c1ccc(Cl)cc1
- IC50 [7]: > 100 µM (inactive)
- AC50 [8]: 0.786 µM (active)

SMILES: O=C(Nc1ccc(Oc2c(F)c(F)c(F)c(F)c2F)cc1)OC1CCN2Cc3ccccc3N=C12 (centres undefined)
- EC50 [9]: 12 µM (active)
- EC50 [10]: 8.72 µM (active)
- AC50 [11]: 0.888 µM (active)
- IC50 [12]: 9.84 µM (active)
- IC50 (Perilipin-1/ABHD5): 8.78 µM (active)
- EC50 [13]: 19 µM (active)
- Absolute IC50 (XBP1) (X-box-binding protein 1): 10 µM

SMILES: Cn1nc([N+](=O)[O-])nc1Sc1nnc(-c2ccccc2)o1
- EC50 [14]: > 120 µM (not active)
- EC50 (BJ [15]): 3.15 µM (active)
- EC50 [9]: > 120 µM (not active)
- EC50 [10]: 10.2 µM (active)
- EC50 (BJ [16]): 2.52 µM (active)
- IC50 (J774.A1): 0.438 µM (active)
- EC50 (BJ [17]): 43.9 µM (inconclusive)
- EC50 [18]: 11.1 µM (active)
- IC50 [19]: 6.19 µM (active)
- IC50 [20]: > 80 µM (inactive)
- AC50 [21]: 40.3 µM (active)
- EC50 (BJ [22]): 0.556 µM (active)
- EC50 (Protein RecA): 10.9 µM (active)
